Where a SMILES comes first, the peptide text is derived from it.
Test system: Candida albicans (Olomouc) biofilm
Experiment: C. albicans biofilm, remaining metabolic activity (XTT)
Type: cell-based
Outline: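 Candida albicans (Olomouc) biofilms grown 48 h at 37 °C in MOPS-buffered RPMI 1640 from 1×10^6 CFU inocula, then exposed 20 h to peptide at 0.39-200 μmol.l^−1. XTT/PMS staining for 90 min, A540; remaining metabolic activity expressed as percent of untreated biofilm after blank correction.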

CCCC[C@H](NC(=O)[C@H](CC(C)C)NC(=O)[C@H](CO)NC(=O)[C@H](CO)NC(=O)[C@H](CCCC)NC(=O)[C@@H](NC(=O)CN)[C@@H](C)CC)C(=O)N[C@@H](CCCCN)C(=O)N[C@@H](CCCCN)C(=O)N[C@@H](CC(C)C)C(=O)N[C@@H](CCCCN)C(=O)N[C@@H](CCCCN)C(=O)N[C@H](C(=O)N[C@H](C(=O)N[C@@H](C)C(=O)N[C@@H](CCCCN)C(N)=O)[C@@H](C)CC)[C@@H](C)CC [V] (HELM PEPTIDE1{G.I.[Nle].S.S.L.[Nle].K.K.L.K.K.I.I.A.K.[am]}$$$$V2.0)
Metabolic activity of C. albicans (%) (peptide concentration 6.25 μmol · l^−1, 20 hours): 106.4% | Metabolic activity of C. albicans (%) (peptide concentration 12.5 μmol · l^−1, 20 hours): 89.5% | Metabolic activity of C. albicans (%) (peptide concentration 25 μmol · l^−1, 20 hours): 45.0% | Metabolic activity of C. albicans (%) (peptide concentration 50 μmol · l^−1, 20 hours): 6.9% | Metabolic activity of C. albicans (%) (peptide concentration 100 μmol · l^−1, 20 hours): 2.4% | Metabolic activity of C. albicans (%) (peptide concentration 200 μmol · l^−1, 20 hours): 0.4%
